The test concerns the target PLpro of SARS-CoV-2 (Severe acute respiratory syndrome coronavirus 2, UniProt P0DTD1). In words: Enzyme activity test in vitro: inhibition of PLpro at fixed concentration 50 μM (RLRGG-AMC substrate). Type of test: biochemical. The conditions noted are these: read-out: Inhibition rate at 50 μM (%).
Take `O=C(NCC1CCCO1)c1cccc(Nc2c(-c3ccc(Cl)cc3)nc3cnccn23)c1` (stereo not shown) [P22408, 3-[[2-(4-chlorophenyl)imidazo[1,2-a]pyrazin-3-yl]amino]-N-(oxolan-2-ylmethyl)benzamide]: the inhibition at 50 µM stood at 17.3%. Take `O=C(c1cccc(Nc2c(-c3ccccc3)nc3cnccn23)c1)N1CCOCC1` [P22409, morpholin-4-yl-[3-[(2-phenylimidazo [1,2-a]pyrazin-3-yl)amino]phenyl] methanone]: the inhibition at 50 µM was found to be 28.2%. Take `CCNC(=O)c1ccc(Nc2c(-c3ccc(OC)c(OC)c3)nc3cnccn23)cc1` [P22410, 4-[[2-(3,4-dimethoxy-phenyl)imidazo[1,2-a]pyrazin-3-yl]amino]-N-ethylbenzamide]: the inhibition at 50 µM is 42.2%. Under `CCNC(=O)c1ccc(Nc2c(-c3ccc(C)cc3)nc3cnccn23)cc1` [P22412, N-ethyl-4-[[2-(4-methylphenyl)imidazo [1,2-a]pyrazin-3-yl]amino]benzamide] stands 33.5%.

Consider `O=C(NCCN1CCOCC1)c1ccc(Nc2c(-c3ccc(Cl)cc3)nc3cnccn23)cc1` [P22413, 4-[[2-(4-chlorophenyl)imidazo[1,2-a]pyrazin-3-yl]amino]-N-(2-morpholin-4-ylethyl)benzamide], for which the inhibition at 50 µM turned out to be 36.1%. Take `CNC(=O)c1cccc(Nc2c(-c3ccccc3)nc3cnccn23)c1` [P22416, N-methyl-3-[(2-phenylimidazo[1,2-a]pyrazin-3-yl)amino] benzamide]: the inhibition at 50 µM was found to be 30.2%. In the case of `CSc1ccc(-c2nc3cnccn3c2Nc2cccc(C(=O)NC(C)C)c2)cc1` [P22417, 3-[[2-(4-methyl-sulfanylphenyl)imidazo [1,2-a]pyrazin-3-yl]amino]-N-propan-2-ylbenzamide], the inhibition at 50 µM was found to be 43.4%.

As to `CSc1ccc(-c2nc3cnccn3c2Nc2cccc(C(=O)NCC3CCCO3)c2)cc1` (stereo not shown) [P22418, 3-[[2-(4-methyl-sulfanylphenyl)imidazo [1,2-a]pyrazin-3-yl]amino]-N-(oxolan-2-ylmethyl)benzamide], the inhibition at 50 µM is 34.5%.

Take `COc1ccc(-c2nc3cnccn3c2Nc2ccc(C(=O)NC(C)C)cc2)cc1OC` [P22420, 4-[[2-(3,4-dimethoxy-phenyl)imidazo[1,2-a]pyrazin-3-yl]amino]-N-propan-2-ylbenzamide]: the inhibition at 50 µM was 43.9%. In the case of `CSc1ccc(-c2nc3cnccn3c2Nc2ccc(C(=O)N3CCOCC3)cc2)cc1` [P22425, [4-[[2-(4-methyl-sulfanylphenyl)imidazo [1,2-a]pyrazin-3-yl]amino]phenyl]-morpholin-4-ylmethanone], the inhibition at 50 µM came out at 40.7%.

In the case of `O=C(NCCN1CCOCC1)c1cccc(Nc2c(-c3ccccc3)nc3cnccn23)c1` [P22427, N-[2-(1,4-oxazinan-4-yl)ethyl]-3-[(2-phenylimidazo[1,2-a]pyrazin-3-yl)amino] benzamide], the inhibition at 50 µM is 22.8%. As to `O=C(c1cccc(Nc2c(-c3ccc(Cl)cc3)nc3cnccn23)c1)N1CCOCC1` [P22429, [3-[[2-(4-chlorophenyl)imidazo[1,2-a]pyrazin-3-yl]amino]phenyl]-morpholin-4-ylmethanone], the inhibition at 50 µM was found to be 24.7%. `COc1ccc(-c2nc3cnccn3c2Nc2ccc(C(=O)NC(C)C)cc2)cc1` [P22432, 4-[[2-(4-methoxy-phenyl)imidazo[1,2-a]pyrazin-3-yl]amino]-N-propan-2-ylbenzamide]: the inhibition at 50 µM is 42.2%. Consider `CN(C)CCNC(=O)c1ccc(Nc2c(-c3ccccc3)nc3cnccn23)cc1` [P22433, N-[2-(dimethylamino)ethyl]-4-[(2-phenyl-imidazo[1,2-a]pyrazin-3-yl)amino] benzamide], for which the inhibition at 50 µM came to 30.5%. On to `Cc1ccc(-c2nc3cnccn3c2Nc2ccc(C(=O)NC3CCCCC3)cc2)cc1` [P22434, N-cyclohexyl-4-[[2-(4-methylphenyl)imidazo[1,2-a]pyrazin-3-yl]amino]benzamide], for which the inhibition at 50 µM came to 41.1%. With `O=C(NCc1ccco1)c1ccc(Nc2c(-c3ccccc3)nc3cnccn23)cc1` [P22435, N-(furan-2-ylmethyl)-4-[(2-phenylimidazo [1,2-a]pyrazin-3-yl)amino]benzamide], the inhibition at 50 µM turned out to be 23.9%. Regarding `CNC(=O)c1cccc(Nc2c(-c3ccc(SC)cc3)nc3cnccn23)c1` [P22436, N-methyl-3-[[2-(4-methylsulfanylphenyl)imidazo[1,2-a]pyrazin-3-yl]amino] benzamide], the inhibition at 50 µM came to 31.3%. `COc1ccc(-c2nc3cnccn3c2Nc2cccc(C(=O)NCCN3CCOCC3)c2)cc1` [P22437, 3-[[2-(4-methoxy-phenyl)imidazo[1,2-a]pyrazin-3-yl]amino]-N-(2-morpholin-4-ylethyl)benzamide]: the inhibition at 50 µM amounted to 24.2%.

`CSc1ccc(-c2nc3cnccn3c2Nc2cccc(C(=O)N3CCOCC3)c2)cc1` [P22439, [3-[[2-(4-methyl-sulfanylphenyl)imidazo [1,2-a]pyrazin-3-yl]amino]phenyl]-morpholin-4-ylmethanone]: the inhibition at 50 µM amounted to 23.2%. On to `COc1ccc(-c2nc3cnccn3c2Nc2ccc(C(=O)NCC3CCCO3)cc2)cc1OC` (stereo not shown) [P22440, 4-[[2-(3,4-dimethoxy-phenyl)imidazo[1,2-a]pyrazin-3-yl]amino]-N-(oxolan-2-ylmethyl)benzamide], for which the inhibition at 50 µM was 33.5%.

Consider `CC(C)NC(=O)c1ccc(Nc2c(-c3ccc(Cl)cc3)nc3cnccn23)cc1` [P22442, 4-[[2-(4-chlorophenyl)imidazo[1,2-a]pyrazin-3-yl]amino]-N-propan-2-ylbenzamide], for which the inhibition at 50 µM worked out at 37.1%. As to `COc1ccc(-c2nc3cnccn3c2Nc2ccc(C(=O)NCCN(C)C)cc2)cc1` [P22443, N-[2-(dimethylamino)ethyl]-4-[[2-(4-methoxyphenyl)imidazo[1,2-a]pyrazin-3-yl]amino]benzamide], the inhibition at 50 µM was 41.2%. The result for `O=C(c1ccc(Nc2c(-c3ccccc3)nc3cnccn23)cc1)N1CCCCC1` [P22444, [4-[(2-phenylimidazo [1,2-a]pyrazin-3-yl)amino]phenyl]-piperidin-1-ylmethanone] reads 43.9%; that for `CCNC(=O)c1cccc(Nc2c(-c3ccccc3)nc3cnccn23)c1` [P22446, N-ethyl-3-[(2-phenyl-imidazo[1,2-a]pyrazin-3-yl)amino] benzamide], 44.4%; that for `O=C(NCCN1CCOCC1)c1cccc(Nc2c(-c3ccc(Cl)cc3)nc3cnccn23)c1` [P22447, 3-[[2-(4-chlorophenyl)imidazo[1,2-a]pyrazin-3-yl]amino]-N-(2-morpholin-4-ylethyl)benzamide], 41.9%. As for `CSc1ccc(-c2nc3cnccn3c2Nc2cccc(C(=O)NC3CCCCC3)c2)cc1` [P22448, N-cyclohexyl-3-[[2-(4-methylsulfanyl-phenyl)imidazo[1,2-a]pyrazin-3-yl]amino] benzamide], the inhibition at 50 µM was 26.9%. The result for `O=C(NCc1ccco1)c1cccc(Nc2c(-c3ccccc3)nc3cnccn23)c1` [P22449, N-(furan-2-ylmethyl)-3-[(2-phenylimidazo [1,2-a]pyrazin-3-yl)amino]benzamide] reads 27.5%; that for `COc1ccc(-c2nc3cnccn3c2Nc2ccc(C(=O)NC3CCCCC3)cc2)cc1OC` [P22450, N-cyclohexyl-4-[[2-(3,4-dimethoxyphenyl)imidazo[1,2-a]pyrazin-3-yl]amino] benzamide], 20.8%.

What is called inhibition is the share of the control response that was lost under treatment.
